Assay results: ChEMBL document CHEMBL1201862, “PubChem BioAssay data set” (2004)
Calls of active or inactive are those of the source.

Assays:
H4 = experiment: Luminescence Cell-Based Dose Response HTS to Identify Activators of 5'UTR Stem-Loop Driven Prion Protein mRNA Translation in H4 Neuroglioblastoma Cells. [Related pubchem assays: 1829 (Project Summary), 1814 (Primary HTS)]; type: functional; details: Homo sapiens
[1] = Luminescence Cell-Based Dose Response HTS to Identify Activators of Luciferase Translation or Activity in H4 […] Cells. [Related pubchem assays: 1829 (Project Summary), 1814 (Primary HTS)]; type: functional
[2] = Luminescence Cell-Based Dose Confirmation HTS to Identify Activators of 5'UTR Stem-Loop Driven Alpha-Synuclein mRNA Translation in H4 Neuroglioblastoma Cells. [Related pubchem assays: 1829 (Project Summary), 1814 (Primary HTS)]; type: functional
[3] = target: T1, Corticotropin-releasing factor receptor 2/Corticotropin-releasing factor-binding protein (Homo sapiens, UniProt P24387+Q13324); experiment: Dose Response confirmation of uHTS hits for small molecule antagonists of the CRF-binding protein and CRF-R2 receptor complex.; type: functional; details: read-out: IC50_Mean
T1 sequence (Q13324 whole entry): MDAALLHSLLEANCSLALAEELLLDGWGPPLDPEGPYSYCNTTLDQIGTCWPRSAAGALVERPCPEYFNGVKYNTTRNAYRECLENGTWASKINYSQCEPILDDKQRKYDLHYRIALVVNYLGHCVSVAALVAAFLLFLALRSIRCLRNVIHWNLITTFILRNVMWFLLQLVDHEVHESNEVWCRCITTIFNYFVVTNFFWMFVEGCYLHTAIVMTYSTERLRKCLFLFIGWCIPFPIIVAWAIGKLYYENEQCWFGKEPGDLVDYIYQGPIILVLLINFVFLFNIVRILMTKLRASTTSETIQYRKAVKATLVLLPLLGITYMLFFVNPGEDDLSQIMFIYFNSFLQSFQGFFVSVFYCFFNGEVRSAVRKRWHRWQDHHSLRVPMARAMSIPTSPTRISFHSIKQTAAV
T1 sequence (P24387 whole entry): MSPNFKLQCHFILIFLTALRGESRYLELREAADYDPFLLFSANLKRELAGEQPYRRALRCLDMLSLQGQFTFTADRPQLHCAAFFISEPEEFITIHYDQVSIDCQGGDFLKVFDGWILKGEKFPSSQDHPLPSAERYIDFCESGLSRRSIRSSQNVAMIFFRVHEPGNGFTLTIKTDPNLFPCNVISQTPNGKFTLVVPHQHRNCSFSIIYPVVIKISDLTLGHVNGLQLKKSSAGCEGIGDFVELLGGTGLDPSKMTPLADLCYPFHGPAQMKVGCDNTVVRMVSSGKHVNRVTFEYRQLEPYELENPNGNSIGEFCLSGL

[4] = target: T1, Corticotropin-releasing factor receptor 2/Corticotropin-releasing factor-binding protein; experiment: activators of CRF receptor 2 with binding protein – uHTS hits, confirmation (AID 602473); type: functional; details: read-out: EC50_Mean
Cytochrome P450 1A2 = target: T2, Cytochrome P450 1A2 (Homo sapiens, UniProt P05177);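 note: PubChem cytochrome P450 panel assay, CYP1A2 panel member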
T2 sequence (P05177 whole entry): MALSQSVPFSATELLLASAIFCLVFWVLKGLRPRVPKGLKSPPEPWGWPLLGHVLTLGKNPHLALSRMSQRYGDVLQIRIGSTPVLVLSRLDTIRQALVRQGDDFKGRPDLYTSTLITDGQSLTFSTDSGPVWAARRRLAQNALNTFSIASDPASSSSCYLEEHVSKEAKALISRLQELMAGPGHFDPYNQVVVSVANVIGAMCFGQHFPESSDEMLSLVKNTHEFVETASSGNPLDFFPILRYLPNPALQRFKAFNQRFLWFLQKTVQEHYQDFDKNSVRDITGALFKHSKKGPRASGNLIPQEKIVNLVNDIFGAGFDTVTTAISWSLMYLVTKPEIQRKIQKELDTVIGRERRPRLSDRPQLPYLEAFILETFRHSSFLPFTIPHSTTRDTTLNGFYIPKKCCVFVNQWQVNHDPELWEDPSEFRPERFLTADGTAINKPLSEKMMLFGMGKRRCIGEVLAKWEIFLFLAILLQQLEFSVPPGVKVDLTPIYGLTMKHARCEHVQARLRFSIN

Cytochrome P450 2C19 = Cytochrome P450 2C19 (Homo sapiens, UniProt P33261); experiment: Cytochrome panel assay with activity outcomes. Panel member name: p450-cyp2c19 Compounds with AC50 equal or less than 10 uM are considered active; type: functional
Sequence of Cytochrome P450 2C19 (P33261 whole entry): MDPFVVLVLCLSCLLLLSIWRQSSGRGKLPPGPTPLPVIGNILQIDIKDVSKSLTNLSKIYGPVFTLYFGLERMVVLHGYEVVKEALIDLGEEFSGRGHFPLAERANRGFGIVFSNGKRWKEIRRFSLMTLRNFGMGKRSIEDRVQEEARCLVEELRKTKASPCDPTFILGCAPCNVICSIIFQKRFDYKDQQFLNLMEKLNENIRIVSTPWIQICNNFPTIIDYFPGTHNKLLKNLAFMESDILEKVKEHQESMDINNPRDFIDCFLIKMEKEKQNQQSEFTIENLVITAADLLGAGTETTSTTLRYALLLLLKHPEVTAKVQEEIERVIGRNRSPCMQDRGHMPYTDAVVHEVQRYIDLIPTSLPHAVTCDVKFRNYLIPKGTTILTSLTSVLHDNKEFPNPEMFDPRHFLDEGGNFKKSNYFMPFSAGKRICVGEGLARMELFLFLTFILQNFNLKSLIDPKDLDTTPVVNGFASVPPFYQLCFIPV

Cytochrome P450 2C9 = Cytochrome P450 2C9 (Homo sapiens, UniProt P11712)
Sequence of Cytochrome P450 2C9 (P11712 whole entry): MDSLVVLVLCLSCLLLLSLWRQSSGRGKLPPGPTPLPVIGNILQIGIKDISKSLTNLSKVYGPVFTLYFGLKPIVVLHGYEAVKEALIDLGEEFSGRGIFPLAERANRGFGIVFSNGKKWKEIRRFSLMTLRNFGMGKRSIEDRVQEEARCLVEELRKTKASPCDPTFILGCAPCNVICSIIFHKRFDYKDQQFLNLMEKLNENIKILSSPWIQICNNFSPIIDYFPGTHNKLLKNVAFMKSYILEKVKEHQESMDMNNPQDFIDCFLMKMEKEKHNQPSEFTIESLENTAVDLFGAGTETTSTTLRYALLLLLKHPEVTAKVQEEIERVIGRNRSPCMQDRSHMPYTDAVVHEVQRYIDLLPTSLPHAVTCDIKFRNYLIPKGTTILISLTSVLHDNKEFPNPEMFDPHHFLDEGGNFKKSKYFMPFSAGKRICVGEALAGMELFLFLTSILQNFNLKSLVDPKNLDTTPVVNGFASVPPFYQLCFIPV

Cytochrome P450 3A4 = Cytochrome P450 3A4 (Homo sapiens, UniProt P08684);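 note: CYP3A4 tested as one member of a cytochrome P450 panel screen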
Sequence of Cytochrome P450 3A4 (P08684 whole entry): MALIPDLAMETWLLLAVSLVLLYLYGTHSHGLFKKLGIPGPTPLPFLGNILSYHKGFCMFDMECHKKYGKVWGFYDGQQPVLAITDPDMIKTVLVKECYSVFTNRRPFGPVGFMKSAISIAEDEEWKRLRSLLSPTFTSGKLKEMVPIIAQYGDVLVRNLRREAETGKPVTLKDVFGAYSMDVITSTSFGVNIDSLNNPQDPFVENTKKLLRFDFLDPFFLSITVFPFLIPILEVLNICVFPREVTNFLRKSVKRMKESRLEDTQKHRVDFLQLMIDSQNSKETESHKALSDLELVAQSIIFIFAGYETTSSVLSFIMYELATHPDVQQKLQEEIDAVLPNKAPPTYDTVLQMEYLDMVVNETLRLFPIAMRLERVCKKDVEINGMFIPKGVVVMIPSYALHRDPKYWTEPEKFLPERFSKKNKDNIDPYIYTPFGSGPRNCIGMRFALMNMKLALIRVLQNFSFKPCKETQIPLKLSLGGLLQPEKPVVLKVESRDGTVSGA

Streptococcus = experiment: Group A Streptococcus viability loss, dose response, counter-screen for streptokinase expression inhibitor project, luminescence, BacTiterGlo (AID 1915); type: functional, organism-based;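 note: potency for reduction of bacterial viability or growth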
Streptokinase A = target: T3, Streptokinase A (Streptococcus pyogenes serotype M1, UniProt P10520); experiment: S. pyogenes streptokinase expression inhibitors, potency, dose response, plasminogen activation absorbance, OD405 (AID 1914); type: functional, Streptococcus pyogenes M1 GAS;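 note: secreted streptokinase activity via plasminogen activation per viability signal from cell pellet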
T3 sequence (P10520 whole entry): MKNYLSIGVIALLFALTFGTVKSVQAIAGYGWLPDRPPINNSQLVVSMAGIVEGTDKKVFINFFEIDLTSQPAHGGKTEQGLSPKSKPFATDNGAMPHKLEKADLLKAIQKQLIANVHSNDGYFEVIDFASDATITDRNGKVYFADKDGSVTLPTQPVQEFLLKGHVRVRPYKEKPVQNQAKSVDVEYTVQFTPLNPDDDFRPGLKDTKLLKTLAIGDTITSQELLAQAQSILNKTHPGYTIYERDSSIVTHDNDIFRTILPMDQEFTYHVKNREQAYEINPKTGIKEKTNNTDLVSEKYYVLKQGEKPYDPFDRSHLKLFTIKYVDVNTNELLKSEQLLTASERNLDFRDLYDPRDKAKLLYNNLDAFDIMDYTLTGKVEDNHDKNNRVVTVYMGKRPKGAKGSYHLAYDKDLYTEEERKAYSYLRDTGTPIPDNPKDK

[5] = tested on: Streptococcus sp. 'group A'; experiment: growth inhibition of control SK(-) GAS strain, dose response, counter-screen for streptokinase expression inhibitor project, luminescence, kanamycin, BacTiterGlo, confirmation (AID 1900); type: functional, organism-based
Cytochrome P450 2D6 = Cytochrome P450 2D6 (Homo sapiens, UniProt P10635);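 note: CYP2D6 member of a cytochrome P450 panel assay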
Sequence of Cytochrome P450 2D6 (P10635 whole entry): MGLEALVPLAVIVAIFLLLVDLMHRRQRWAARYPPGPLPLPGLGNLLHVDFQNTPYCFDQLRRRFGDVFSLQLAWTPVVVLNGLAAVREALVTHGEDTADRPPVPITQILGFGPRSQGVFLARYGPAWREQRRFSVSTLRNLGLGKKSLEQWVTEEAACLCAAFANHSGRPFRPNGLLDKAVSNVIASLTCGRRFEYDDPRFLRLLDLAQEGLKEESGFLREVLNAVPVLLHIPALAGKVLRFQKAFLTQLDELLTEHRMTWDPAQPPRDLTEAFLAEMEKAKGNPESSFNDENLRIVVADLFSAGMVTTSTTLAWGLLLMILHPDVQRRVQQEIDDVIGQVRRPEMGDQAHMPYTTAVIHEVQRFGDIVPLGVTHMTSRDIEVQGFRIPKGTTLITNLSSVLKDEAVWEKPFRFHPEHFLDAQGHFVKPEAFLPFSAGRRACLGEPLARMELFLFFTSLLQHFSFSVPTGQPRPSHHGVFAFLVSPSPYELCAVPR

[6] = P. falciparum Dd2 growth inhibitors, dose response, SYBR Green, cherry-picked samples (AID 1159567); type: functional, cell-based

## CC(=O)C(Sc1nn(C)c(=S)s1)C(=O)Nc1ccccc1 (configuration not stated)
H4
  EC50: 14.3 µM (active)
[1]
  EC50: 12.4 µM (active)
[2]
  EC50: 23.9 µM (active)

## O=[N+]([O-])/C(C(Cl)=C(Cl)Cl)=C(/NC1CC1)Sc1ccccc1
[3]
  IC50: > 47.1 µM (inactive)
[4]
  EC50: > 53 µM (inactive)

## CS(=O)(=O)Nc1nc2n(n1)C(c1ccccc1)CC(c1ccccc1)N2 (configuration not stated)
[3]
  IC50: > 47.1 µM (inactive)
[4]
  EC50: > 53 µM (inactive)

## O=S(=O)(c1ccc(Cl)cc1)N1c2ccccc2Oc2nc3ccccc3nc21
H4
  EC50: > 120 µM (not active)
[1]
  EC50: > 120 µM (not active)
[2]
  EC50: > 120 µM (not active)

## Cc1ccnc(NC(=S)NC(=O)/C=C/c2ccco2)c1
H4
  EC50: > 120 µM (not active)
[1]
  EC50: 9.64 µM (active)
[2]
  EC50: 0.458 µM (active)

## CC[C@H]1C2=C3C(CC[C@H]4C(OC)OC[C@](C)([C@@H]34)N(C(=O)OC(C)(C)C)C2)C(CO)C1CO (some centres not stated)
Cytochrome P450 1A2
  AC50: 12.6 µM (inconclusive)
Cytochrome P450 2C19
  AC50: inconclusive
Cytochrome P450 2C9
  AC50: 25.1 µM (inconclusive)
Cytochrome P450 3A4
  AC50: 10 µM (inconclusive)

## Cc1ccc(C)c(NC(=S)Nc2ncccc2C)c1
[3]
  IC50: > 47.1 µM (inactive)
[4]
  EC50: > 53 µM (inactive)

## COc1ccccc1C1C(C(=O)c2sc(C)nc2C)=C(O)C(=O)N1CCN1CCOCC1 (configuration not stated)
[3]
  IC50: > 47.1 µM (inactive)
[4]
  EC50: > 53 µM (inactive)

## CCCP(=O)(CC(=O)N(CC)CC)c1ccccc1 (configuration not stated)
[3]
  IC50: > 47.1 µM (inactive)
[4]
  EC50: > 53 µM (inactive)

## Cn1c(=O)n(Cc2ccccc2Cl)c2ccccc21
[3]
  IC50: > 47.1 µM (inactive)
[4]
  EC50: > 53 µM (inactive)

## CCc1ccccc1NC(=O)NC(C)c1ccc2c(c1)OCO2 (configuration not stated)
Streptococcus
  EC50: > 150 µM (not active)
[3]
  IC50: > 47.1 µM (inactive)
[4]
  EC50: > 53 µM (inactive)
Streptokinase A
  EC50: > 150 µM (not active)
[5]
  EC50: > 150 µM (not active)

## O=c1c2ccccc2nc2n1CC/C2=C\c1ccccc1[N+](=O)[O-]
Cytochrome P450 2C19; read-out: AC50
  AC50: 3.98 µM (inconclusive)
Cytochrome P450 3A4
  AC50: 10 µM (inconclusive)

## O=C(O)c1ccccc1-c1ccccc1C(=O)Nc1ccccc1
Cytochrome P450 2C9
  AC50: 35.5 µM (inconclusive)
Cytochrome P450 3A4
  AC50: 28.2 µM (inconclusive)

## CC1CCc2c(sc3nc(CSc4n[nH]c(N)n4)nc(O)c23)C1 (configuration not stated)
H4
  EC50: 13.2 µM (active)
[1]
  EC50: 27.2 µM (active)
[2]
  EC50: 15.5 µM (active)

## COc1ccc(S(=O)(=O)N2CCCC(C(=O)NCc3ccncc3)C2)cc1 (configuration not stated)
[3]
  IC50: > 47.1 µM (inactive)
[4]
  EC50: > 53 µM (inactive)

## CSc1ncc(Cl)c(C(=O)Nc2ccc(S(=O)(=O)N3CCOCC3)cc2)n1
[3]
  IC50: > 47.1 µM (inactive)
[4]
  EC50: > 53 µM (inactive)

## COc1ccc(C2=C(C#N)C(=O)OC2)cc1
Cytochrome P450 2C9
  AC50: 39.8 µM (inconclusive)
Cytochrome P450 3A4
  AC50: 31.6 µM (inconclusive)

## C/C(CCN1CCc2nc(-c3ccccc3)c(-c3ccccc3)cc2C1)=N\OC[C@@H](C)[C@H](OCc1ccccc1)C(C)C
Cytochrome P450 3A4
  AC50: 3.98 µM (inconclusive)

## CCC(C)[C@H](NC(=O)N1CC(=O)Nc2ccccc21)C(=O)Nc1ccccc1C (some centres not stated)
H4
  EC50: > 120 µM (not active)
[1]
  EC50: 27.5 µM (active)
[2]
  EC50: > 120 µM (not active)

## CS(=O)(=O)c1ccccc1COC(=O)Nc1ccc(Cl)cc1
Cytochrome P450 2D6
  AC50: 10 µM (inconclusive)
Cytochrome P450 3A4
  AC50: 12.6 µM (inconclusive)

## CCOC(=O)c1cc(=O)cc(C(=O)OCC)o1
[3]
  IC50: > 47.1 µM (inactive)
[4]
  EC50: > 53 µM (inactive)

## CCCn1c(=N)c(S(=O)(=O)c2ccccc2)cc2c(=O)n3ccccc3nc21
[3]
  IC50: > 47.1 µM (inactive)
[4]
  EC50: > 53 µM (inactive)

## CCc1ccc(N2CC(C)Cn3c2nc2c3c(=O)n(CCN3CCOCC3)c(=O)n2C)cc1 (configuration not stated)
Cytochrome P450 2C9
  AC50: 0.178 µM (inconclusive)
Cytochrome P450 3A4
  AC50: 39.8 µM (inconclusive)

## Cc1nc2cnc(N3CCNCC3)nc2n(-c2ccccc2)c1=O
Cytochrome P450 3A4
  AC50: 31.6 µM (inconclusive)

## COC(=O)CSc1nc2ccccn2c(=O)c1C=O
H4
  EC50: > 120 µM (inconclusive)
[1]
  EC50: 18.5 µM (active)
[2]
  EC50: 28.5 µM (active)

## Cc1cc(-c2cccc([N+](=O)[O-])c2)nc2ccc3ccccc3c12
Cytochrome P450 2C19; read-out: AC50
  AC50: 20 µM (inconclusive)
Cytochrome P450 3A4
  AC50: 3.16 µM (inconclusive)

## Nc1ccc(N=Nc2ccccc2)cc1[N+](=O)[O-]
[3]
  IC50: > 47.1 µM (inactive)
[4]
  EC50: > 53 µM (inactive)

## O=c1cc(CN2CCN(Cc3ccccc3)CC2)c2cc(O)ccc2o1
[3]
  IC50: > 47.1 µM (inactive)
[4]
  EC50: > 53 µM (inactive)

## O=C(O)c1cc(S(=O)(=O)N2CCCCC2)ccc1F
Cytochrome P450 3A4
  AC50: 1.26 µM (inconclusive)

## COC(=O)C(C)Sc1nc(O)c2cnn(-c3ccc(C)cc3)c2n1 (configuration not stated)
Cytochrome P450 2C19; read-out: AC50
  AC50: 7.94 µM (inconclusive)
Cytochrome P450 2C9
  AC50: 3.55 µM (inconclusive)
Cytochrome P450 3A4
  AC50: 14.1 µM (inconclusive)

## COc1cccc(/C(C)=N/NS(=O)(=O)c2ccc(Cl)cc2)c1
[3]
  IC50: > 47.1 µM (inactive)
[4]
  EC50: > 53 µM (inactive)

## CC1=C(C(=O)OCc2ccccc2)C(c2ccc3ccccc3c2)NC(=O)N1CCCCCC(=O)O (configuration not stated)
Cytochrome P450 1A2
  AC50: 20 µM (inconclusive)
Cytochrome P450 2D6
  AC50: 39.8 µM (inconclusive)
Cytochrome P450 2C19; read-out: AC50
  AC50: 39.8 µM (inconclusive)
Cytochrome P450 3A4
  AC50: 10 µM (inconclusive)

## COc1cc(CN2CC3(CCN(C(=O)c4cccnc4)CC3)c3c([nH]c4cc(OC)ccc34)[C@@H]2CO)cc(OC)c1
[6]
  AC50: 5.84 µM (active)

## COc1ccc(CN2CC3(CN(C(C)=O)C3)c3c([nH]c4cc(OC)ccc34)[C@@H]2CO)cc1
[6]
  AC50: 9.9 µM (active)

## CN1c2ccc(C#Cc3cccnc3)cc2[C@H]2[C@H](CCN2C(=O)C2CCCC2)[C@H]1CO
[6]
  AC50: 4 µM (active)

## N#Cc1ccc(-c2ccc([C@@H]3[C@@H](CO)N4C(=O)CN(C(=O)C5CCC5)C[C@@H]34)cc2)cc1
[6]
  AC50: 5.38 µM (active)

## COc1cccc(C(=O)Nc2ccc3c(c2)C(=O)N(C)C[C@@H](OC)[C@H](C)CN(CCc2ccccc2)[C@H](C)CO3)c1
[6]
  AC50: 4.35 µM (active)

## OC[C@H]1CC[C@@H]2O[C@H](CCc3ccc(C#CCc4ccccc4)cc3)[C@@H](n3cc(-c4ccccc4)nn3)C[C@@H]2O1
[6]
  AC50: 6.17 µM (active)

## Cc1cccc(C)c1OC[C@@H](N)C(C)C
Cytochrome P450 3A4
  AC50: 20 µM (inconclusive)
